{
  "source": "patent US9145351B2",
  "about": "“Azole derivatives, methods for producing the same, intermediate thereof, agro-horticultural agents” (KUREHA CORPORATION, priority 2009, dated 2015)",
  "system": "Puccinia recondita",
  "assay": "Efficacy test against wheat brown rust, 2 mg/L (Experimental Example 8)",
  "type": "in vivo",
  "parameters": "key: 0: No onset; 0.5: Less than 1%; 1% or higher and less than 5%; 2: 5% or higher and less than 10%; 10% or higher and less than 30%; 4: 30% or higher and less than 50%; 50% or higher",
  "conditions": "sprayed at 1,000 L/ha, concentration printed 0.02 mg/L, 9 to 14 days after inoculation",
  "protocol": "Onto a wheat plant (variety: […] The sprayed leaves were air-dried, and inoculated with spore suspension of Puccinia recondita (adjusted at 200 spores/vision, […] was added at 60 ppm) by spraying, and kept at 25 degrees C. and a high humidity for 48 hours. Thereafter, the plant was kept in a greenhouse. Nine to 14 days after inoculation, the wheat brown rust lesion degree was investigated, and the protective value was calculated by the following equation. Protective value (%)=(1-lesion degree in sprayed plot/lesion degree in unsprayed plot)×100",
  "data": [
    {"smiles": "C[C@]1(CCl)CC[C@@H](Cc2ccc(F)cc2)[C@]1(O)Cn1cncn1", "note": "(racemic) [Compound I-77, (1RS,2SR,5SR)-2-chloromethyl-5-(4-fluorobenzyl)-2-methyl-1-(1H-1,2,4-triazol-1-ylmethyl)cyclopentanol]", "values": [
      {"measurement": "degree (wheat brown rust lesion degree)", "value": 0}
    ]}
  ]
}
